One series deals with Karpas-299 cells. Briefly: Cellular toxicity test (1), CellTiter-Glo, Karpas-299. The format is cell-based. The following applies: Homo sapiens, 96 h, cultured 4 days, cell viability. How it is done:
SU-DHL-1 cells (American Type Culture Collection, hereinafter, ATCC) and Karpas-299 cells (European Collection of Authenticated Cell Cultures, hereinafter, ECACC), which are human lymphoma cell lines, were cultured in RPMI 1640 (GIBCO) containing 10% fetal bovine serum (MP Biomedicals) (hereinafter, referred to as the “culture medium” in this test). SU-DHL-1 cells and Karpas-299 cells were prepared to be 2×10^6 cells/mL in the culture medium, and were added to a 96 well microplate for cell culturing in an amount of 50 μL for each well. Compounds of Examples or hemiasterlin 4 times diluted with the culture medium in 8 stages were added to the microplate in an amount of 50 μL for each well. To wells to which the test substance was not added, the culture medium was added in an amount of 50 μL for each well. These were cultured at 37 degree under 5% CO2 for 4 days. After culturing, the microplate was taken out from the incubator, and was left at rest at room temperature for 10 minutes. To each well, 50 μL of CellTiter-Glo Luminescent Cell Viability Assay (Promega) was added, and the resultant mixture was stirred. This mixture was incubated at a dark place for 20 minutes. Using a microplate luminometer, luminescence at each well was measured, thereby calculating the cell viability for each concentration of the test substance. From the cell viability, the IC50 value of the test substance was determined.
The IC50 value was calculated by the following formula: IC50(nM)=antilog(LOG10(a/b)×(e−d)/(c−d)+LOG10b) • a: concentration a of test substance • b: concentration b of test substance • c: cell viability upon adding test substance with concentration a • d: cell viability upon adding test substance with concentration b • e: intermediate value between maximum and minimum among cell viabilities upon • adding test substances with different concentrations (a and b are concentrations crossing the cell viability e, and a>b is indicated).
The cell viability at each concentration was calculated by the following formula: Cell Viability (%)=a′/b′×100 • a′: mean value of luminescence amount of wells to which test substance was added (n=6) • b′: mean value of luminescence amount of wells to which test substance was not added (n=6) • (n represents the number of evaluations performed per test substance concentration).
(Cellular ATP, detected with luciferase, serves as a proxy for viable cell number.)

The next series can be described thus: in vitro. The following applies: PAMPA, pH 7.4. Here is the method:
By the parallel artificial membrane permeability assay (PAMPA), the membrane permeability of compounds of Examples was examined as follows: To the donor plate, System solution (pION inc.) and GIT Lipid-0 (pION inc.) were added in an amount of 200 μL and 4 μL for each well, respectively. To the acceptor plate, Acceptor Sink Buffer (pION inc.) was added in an amount of 200 μL. Both plates were superposed and incubated at 37° C. for 4 hours, and then, UVs in the solutions on the side of acceptor and on the side of donor were measured with an UV plate reader (190 to 500 nm). Compounds with poor UV absorption were measured by LC-MS. The permeability coefficient Pe (10^−6 cm/sec) of the drug was calculated by the following formula.
In general terms: In PAMPA a lipid-coated filter parts donor from acceptor wells.

A further series addresses porcine tubulin (Sus scrofa, UniProt P02550+P02554). Briefly: Activity for inhibiting microtubule polymerization using porcine tubulins (2), microtubule polymerization rate. The following applies: 60 minutes after assay initiation; relative to wells without compound; lower = stronger inhibition.

*1 amine or outer side, *2 acyl side, *3 side chain or, on linkers, in order; H or OH if unused. Where a SMILES comes first, the peptide text is derived from it. [ ]: non-standard residue; d: D form. NMeTrp(1,β,β-Me3) = CN[C@H](C(=O)O)C(C)(C)c1cn(C)c2ccccc12; X1 = C/C(=C\[C@H](C(C)C)N(C)[*:1])C(=O)[*:2]; Tle = CC(C)(C)[C@H](N)C(=O)O A value given as a limit tells only on which side of the number the result lay.

Sequence of porcine tubulin (P02554 whole entry): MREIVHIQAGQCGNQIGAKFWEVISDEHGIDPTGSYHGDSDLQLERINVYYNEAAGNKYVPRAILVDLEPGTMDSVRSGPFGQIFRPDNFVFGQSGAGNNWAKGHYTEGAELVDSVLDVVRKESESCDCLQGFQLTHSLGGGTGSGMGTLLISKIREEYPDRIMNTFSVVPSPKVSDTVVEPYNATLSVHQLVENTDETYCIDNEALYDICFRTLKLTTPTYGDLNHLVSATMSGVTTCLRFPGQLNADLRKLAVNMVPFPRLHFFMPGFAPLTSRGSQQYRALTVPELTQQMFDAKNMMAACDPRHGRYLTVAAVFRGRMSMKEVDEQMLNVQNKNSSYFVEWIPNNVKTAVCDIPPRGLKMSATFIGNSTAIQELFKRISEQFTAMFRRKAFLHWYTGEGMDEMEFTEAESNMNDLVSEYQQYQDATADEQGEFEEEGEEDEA
Sequence of porcine tubulin (P02550 whole entry): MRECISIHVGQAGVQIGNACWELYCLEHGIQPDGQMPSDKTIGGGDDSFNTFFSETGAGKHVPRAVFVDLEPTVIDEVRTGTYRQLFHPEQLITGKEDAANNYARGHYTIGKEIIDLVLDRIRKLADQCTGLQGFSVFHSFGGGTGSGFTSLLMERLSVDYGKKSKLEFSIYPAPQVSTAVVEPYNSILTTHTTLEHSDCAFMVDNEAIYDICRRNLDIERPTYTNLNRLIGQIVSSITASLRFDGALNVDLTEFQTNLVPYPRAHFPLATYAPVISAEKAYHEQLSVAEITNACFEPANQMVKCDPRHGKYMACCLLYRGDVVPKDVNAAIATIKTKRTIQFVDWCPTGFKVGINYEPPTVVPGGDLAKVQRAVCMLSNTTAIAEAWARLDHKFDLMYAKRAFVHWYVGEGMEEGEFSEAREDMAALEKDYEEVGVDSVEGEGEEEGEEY

What is called IC50 is the concentration that inhibits the measured activity by half. `CCOC(=O)CC[C@@H](NC(=O)/C(C)=C/[C@H](C(C)C)N(C)C(=O)[C@@H](NC(=O)[C@@H](N)C(C)(C)c1cn(C)c2ccccc12)C(C)(C)C)C(=O)OCC` [Example 1, (2R)-2-{[(2E,4S)-4-{[(2S)-2-{[(2S)-2-Amino-3-methyl-3-(1-methyl-1H-indol-3-yl)butanoyl]amino}-3,3-dimethylbutanoyl](methyl)amino}-2,5-dimethylhex-2-enoyl]amino}pentane diethyl diester] yielded an IC50 in the series on Karpas-299 cells of 93.9 nM.
The Papp is a coefficient for how fast a substance crosses the barrier. On to `C/C(=C\[C@H](C(C)C)N(C)C(=O)[C@@H](NC(=O)[C@@H](N)C(C)(C)c1cn(C)c2ccccc12)C(C)(C)C)C(=O)N[C@H](CCC(=O)O)C(=O)O` [Example 2, β,β,1-Trimethyl-L-tryptophyl-N-[(3S,4E)-6-{[(1R)-1,3-dicarboxypropyl]amino}-2,5-dimethyl-6-oxohex-4-en-3-yl]-N,3-dimethyl-L-valinamide], for which the half-maximal inhibitory concentration (IC50) with Karpas-299 cells was greater than 125 nM. This molecule also displayed an apparent permeability coefficient (Papp) in the series “in vitro” of 0.2 ×10⁻⁶ cm/s. Moreover, the “Microtubule polymerization rate (%)” value on porcine tubulin came out at 4%.
`CN[C@H](C(=O)N[C@H](C(=O)N(C)[C@H](/C=C(\C)C(=O)N[C@@H](CC(=O)O)C(=O)N[C@@H](CC(=O)O)C(=O)N[C@@H](CC(=O)O)C(=O)N[C@@H](CC(=O)O)C(=O)N[C@@H](CC(=O)O)C(=O)O)C(C)C)C(C)(C)C)C(C)(C)c1cn(C)c2ccccc12` [Example 3, N-{(2E,4S)-2,5-Dimethyl-4-[methyl(N,β,β,1-tetramethyl-L-tryptophyl-3-methyl-L-valyl)amino]hex-2-enoyl}-L-α-aspartyl-L-t-aspartyl-L-α-aspartyl-L-α-aspartyl-L-α-aspartic acid] (H-[NMeTrp(1,β,β-Me3)][Tle][X1]DDDDD-OH): in the series with Karpas-299 cells, the IC50 is greater than 5000 nM. Besides, the apparent permeability (Papp) at 4 h in the series “in vitro” was less than 0.1 ×10⁻⁶ cm/s. Further, on porcine tubulin, the “Microtubule polymerization rate (%)” value came out at 3%.
The molecule `CN[C@H](C(=O)N[C@H](C(=O)N(C)[C@H](/C=C(\C)C(=O)N[C@H](CCCCN)C(=O)O)C(C)C)C(C)(C)C)C(C)(C)c1cn(C)c2ccccc12` [Example 5] showed an IC50 in the series with Karpas-299 cells of 87.2 nM.
The molecule `CN[C@H](C(=O)N[C@H](C(=O)N(C)[C@H](/C=C(\C)C(=O)N[C@@H](CCC(=O)O)C(=O)O)C(C)C)C(C)(C)C)C(C)(C)c1cn(C)c2ccccc12` [Example 6] showed a half-maximal inhibitory concentration (IC50) in the series on Karpas-299 cells of 34 nM. For the same molecule, the Papp in the series “in vitro” is less than 0.1 ×10⁻⁶ cm/s.
`CCOC(=O)[C@H](CCC(=O)O)NC(=O)/C(C)=C/[C@H](C(C)C)N(C)C(=O)[C@@H](NC(=O)[C@@H](NC)C(C)(C)c1cn(C)c2ccccc12)C(C)(C)C` [Example 13]: the “Microtubule polymerization rate (%)” value on porcine tubulin was 21%.
In turn, `CN[C@H](C(=O)N[C@H](C(=O)N(C)[C@H](/C=C(\C)C(=O)N[C@@H](CCC(=O)N[C@@H](CCC(=O)O)C(=O)O)C(=O)N[C@@H](CCC(=O)O)C(=O)O)C(C)C)C(C)(C)C)C(C)(C)c1cn(C)c2ccccc12` [Example 47] (H-[NMeTrp(1,β,β-Me3)][Tle][X1]E(Glu)E-OH) gave an IC50 with Karpas-299 cells of 773 nM. The apparent permeability (Papp) in the series “in vitro” is less than 0.1 ×10⁻⁶ cm/s. For the same molecule, the “Microtubule polymerization rate (%)” value at porcine tubulin is 3%.
On to `CN[C@H](C(=O)N[C@H](C(=O)N(C)[C@H](/C=C(\C)C(=O)N[C@H](CCC(=O)N[C@@H](CCCCN)C(=O)O)C(=O)O)C(C)C)C(C)(C)C)C(C)(C)c1cn(C)c2ccc(F)cc12` [Example 52], for which, in the series with Karpas-299 cells, the IC50 was 230 nM. In the series “in vitro”, this molecule displayed an apparent permeability (Papp) of less than 0.1 ×10⁻⁶ cm/s.
The matching figures for `CN[C@H](C(=O)N[C@H](C(=O)N(C)[C@H](/C=C(\C)C(=O)N[C@@H](CS(=O)(=O)O)C(=O)O)C(C)C)C(C)(C)C)C(C)(C)c1ccccc1` [Example 53]: 122 nM and less than 0.1 ×10⁻⁶ cm/s.
In the case of `CN[C@H](C(=O)N[C@H](C(=O)N(C)[C@H](/C=C(\C)C(=O)N[C@@H](COP(=O)(O)O)C(=O)O)C(C)C)C(C)(C)C)C(C)(C)c1ccccc1` [Example 54], half-maximal inhibition with Karpas-299 cells (IC50) was put at 22.2 nM.
`CN[C@H](C(=O)N[C@H](C(=O)N(C)[C@H](/C=C(\C)C(=O)N[C@H](CCC(=O)O)C(=O)O)C(C)C)C(C)(C)C)C(C)(C)c1cccc(C(F)(F)F)c1` [Example 55] showed an IC50 in the series with Karpas-299 cells of 34.6 nM. Also, the Papp in the series “in vitro” is less than 0.1 ×10⁻⁶ cm/s. The “Microtubule polymerization rate (%)” value at porcine tubulin was 16%.
The matching figures for `CN[C@H](C(=O)N[C@H](C(=O)N(C)[C@H](/C=C(\C)C(=O)N[C@H](CCC(=O)O)C(=O)O)C(C)C)C(C)(C)C)C(C)(C)c1cccc(F)c1` [Example 56]: 275 nM, 0.7 ×10⁻⁶ cm/s and 7%.
Consider `C/C(=C\[C@H](C(C)C)N(C)C(=O)[C@@H](NC(=O)[C@H]1CCCCN1C(C)C)C(C)(C)C)C(=O)N[C@H](CCC(=O)O)C(=O)O` [Example 57], for which the 50% inhibitory concentration (IC50) in the series with Karpas-299 cells is greater than 1000 nM. In “in vitro”, this molecule had an apparent permeability (Papp) of less than 0.1 ×10⁻⁶ cm/s. Also, the “Microtubule polymerization rate (%)” value at porcine tubulin is on record as 5%.
For `CN[C@H](C(=O)N[C@H](C(=O)N(C)[C@H](/C=C(\C)C(=O)N[C@H](CCC(=O)O)C(=O)O)C(C)C)C(C)(C)C)C(C)(C)C1CCCCC1` [Example 58], in that order: greater than 1000 nM, 9 ×10⁻⁶ cm/s and 5%.
For `CNC(C(=O)N[C@H](C(=O)N(C)[C@H](/C=C(\C)C(=O)N[C@H](CCC(=O)O)C(=O)O)C(C)C)C(C)(C)C)C(C)(C)c1ccc(O)cc1` (stereo partly shown) [Example 59], in that order: 412 nM, 0.5 ×10⁻⁶ cm/s and 2%.
The matching figures for `CN[C@H](C(=O)N[C@H](C(=O)N(C)[C@H](/C=C(\C)C(=O)N[C@H](CCC(=O)O)C(=O)O)C(C)C)C(C)(C)C)C(C)(C)c1cccc(C#N)c1` [Example 60]: 406 nM, less than 0.1 ×10⁻⁶ cm/s and 6%.
Take `CN[C@H](C(=O)N[C@H](C(=O)N(C)[C@H](/C=C(\C)C(=O)N[C@H](CCC(=O)O)C(=O)O)C(C)C)C(C)(C)C)C(C)(C)c1cc(C)cc(C)c1` [Example 62]: at porcine tubulin, the “Microtubule polymerization rate (%)” value came to 6%.
On to `CN[C@H](C(=O)N[C@H](C(=O)N(C)[C@H](/C=C(\C)C(=O)N[C@H](CCC(=O)O)C(=O)O)C(C)C)C(C)(C)C)C(C)(C)c1ccc2ccccc2c1` [Example 64], for which, in the series on Karpas-299 cells, the IC50 came to 30 nM.
In the series on Karpas-299 cells, `CN[C@@H](C(=O)N[C@H](C(=O)N(C)[C@H](/C=C(\C)C(=O)N[C@H](CCC(=O)O)C(=O)O)C(C)C)C(C)(C)C)C(C)(C)c1cccc(Br)c1` [Example 65] registered an IC50 greater than 1000 nM. The Papp in “in vitro” was less than 0.1 ×10⁻⁶ cm/s.
In the case of `CN[C@H](C(=O)N[C@H](C(=O)N(C)[C@H](/C=C(\C)C(=O)N[C@H](CCC(=O)O)C(=O)O)C(C)C)C(C)(C)C)C(C)(C)c1ccc(C(=O)OC(C)(C)C)cc1` [Example 66], the IC50 in the series on Karpas-299 cells was greater than 1000 nM. This molecule had a Papp in “in vitro” of less than 0.1 ×10⁻⁶ cm/s. Further, the “Microtubule polymerization rate (%)” value at porcine tubulin came to 9%.
In turn, `CN[C@H](C(=O)N[C@H](C(=O)N(C)[C@H](/C=C(\C)C(=O)N[C@H](CCC(=O)O)C(=O)O)C(C)C)C(C)(C)C)C(C)(C)c1cccc(-c2ccccc2)c1` [Example 67] showed an IC50 in the series with Karpas-299 cells of 149 nM. In the series “in vitro”, this molecule had a Papp of less than 0.1 ×10⁻⁶ cm/s. Further, the “Microtubule polymerization rate (%)” value on porcine tubulin was determined as 42%.
`CN[C@H](C(=O)N[C@H](C(=O)N(C)[C@H](/C=C(\C)C(=O)N[C@H](CCC(=O)O)C(=O)O)C(C)C)C(C)(C)C)C(C)(C)c1cccc(C)c1` [Example 68] registered an IC50 with Karpas-299 cells of 26.5 nM. This molecule came in with a Papp in the series “in vitro” of less than 0.1 ×10⁻⁶ cm/s. The “Microtubule polymerization rate (%)” value on porcine tubulin is listed as 4%.
The matching figures for `CN[C@H](C(=O)N[C@H](C(=O)N(C)[C@H](/C=C(\C)C(=O)N[C@H](CCC(=O)O)C(=O)O)C(C)C)C(C)(C)C)C(C)(C)c1cccc(Br)c1` [Example 69]: 97.1 nM, less than 0.1 ×10⁻⁶ cm/s and 5%.
With `CNC(C(=O)N[C@H](C(=O)N(C)[C@H](/C=C(\C)C(=O)N[C@H](CCC(=O)O)C(=O)O)C(C)C)C(C)(C)C)C(C)(C)c1ccc(C(=O)O)cc1` (stereo partly shown) [Example 70], the IC50 in the series with Karpas-299 cells worked out at 721 nM. Besides, the apparent permeability coefficient (Papp) in the series “in vitro” was found to be 0.9 ×10⁻⁶ cm/s.
For `CN[C@H](C(=O)N[C@H](C(=O)N(C)[C@H](/C=C(\C)C(=O)N[C@H](CCC(=O)O)C(=O)O)C(C)C)C(C)(C)C)C(C)(C)c1ccc(C(=O)O)cc1` [Example 71], in the series on Karpas-299 cells, the half-inhibitory concentration (IC50) was found to be 701 nM. The same molecule yielded an apparent permeability (Papp) in “in vitro” of less than 0.1 ×10⁻⁶ cm/s. In addition, the “Microtubule polymerization rate (%)” value on porcine tubulin was found to be 4%.

The values above are taken from US12018093B2, “Hemiasterlin derivatives and antibody-drug conjugates including same” (priority 2017, dated 2024).
